Where “and” joins values, the source holds several entries; their conditions need not be identical. Equal values may be shown once. Toxic doses and inconclusive results are not listed. Rule for the calls: active = survival T/C of 150% or more; inactive = T/C below 125% in these data. Square brackets hold non-standard residues; d marks the D form. Peptide text beside a SMILES is read from it. * marks the point of attachment. Cbz = O=C(OCc1ccccc1)*; Nva = CCC[CH](N)C(=O)O
System: P388 leukemia ip, CD2F1 mice, survival T/C
Assay: NCI In Vivo Anticancer Drug Screen. Data for tumor model P388 Leukemia (intraperitoneal) in CD2F1 (CDF1) mice
Conditions: endpoint: median survival time, higher = longer survival
Method in brief: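 Mice carrying the transplanted tumor received test compound or vehicle. Survival was recorded in each group, and the value is the treated-group measurement divided by that of the vehicle-treated control group.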

[1] = dose: 60.0 mg/kg/injection, schedule: Q01DX005 (ip), vehicle: saline with Tween-80
[2] = dose: 50.0 mg/kg/injection, schedule: Q01DX005 (ip), vehicle: saline
[3] = dose: 100.0 mg/kg/injection, schedule: Q01DX005 (ip), vehicle: saline
[4] = dose: 200.0 mg/kg/injection, schedule: Q01DX005 (ip), vehicle: saline
[5] = dose: 50.0 mg/kg/injection, schedule: Q01DX005 (ip), vehicle: saline with Tween-80
[6] = dose: 100.0 mg/kg/injection, schedule: Q01DX005 (ip), vehicle: saline with Tween-80
[7] = dose: 200.0 mg/kg/injection, schedule: Q01DX005 (ip), vehicle: saline with Tween-80
[8] = dose: 120.0 mg/kg/injection, schedule: Q01DX005 (ip), vehicle: saline with Tween-80
[9] = dose: 240.0 mg/kg/injection, schedule: Q01DX005 (ip), vehicle: saline with Tween-80
[10] = dose: 50.0 mg/kg/injection, schedule: Q01DX009 (ip), vehicle: saline with Tween-80
[11] = dose: 100.0 mg/kg/injection, schedule: Q01DX009 (ip), vehicle: saline with Tween-80
[12] = dose: 200.0 mg/kg/injection, schedule: Q01DX009 (ip), vehicle: saline with Tween-80
[13] = dose: 50.0 mg/kg/injection, schedule: Q01DX009 (ip), vehicle: Klucel (hydroxypropylcellulose) (HPC)
[14] = dose: 100.0 mg/kg/injection, schedule: Q01DX009 (ip), vehicle: Klucel (hydroxypropylcellulose) (HPC)
[15] = dose: 50.0 mg/kg/injection, schedule: Q01DX009 (ip), vehicle: saline
[16] = dose: 25.0 mg/kg/injection, schedule: Q04DX002 (ip), vehicle: saline with Tween-80
[17] = dose: 50.0 mg/kg/injection, schedule: Q04DX002 (ip), vehicle: saline with Tween-80
[18] = dose: 12.5 mg/kg/injection, schedule: Q01DX009 (ip), vehicle: saline
[19] = dose: 25.0 mg/kg/injection, schedule: Q01DX009 (ip), vehicle: saline

Measured: T/C

C#C/C=C/CC1O[C@H](/C=C/C)C/C=C\CC1Cl (stereo partly drawn)
inactive: dose: 7.8 mg/kg/injection, schedule: Q01DX005 (ip), vehicle: Klucel (hydroxypropylcellulose) (HPC) 94 % of control | dose: 15.62 mg/kg/injection, schedule: Q01DX005 (ip), vehicle: Klucel (hydroxypropylcellulose) (HPC) 99 % of control | dose: 31.25 mg/kg/injection, schedule: Q01DX005 (ip), vehicle: Klucel (hydroxypropylcellulose) (HPC) 96 % of control | dose: 62.5 mg/kg/injection, schedule: Q01DX005 (ip), vehicle: Klucel (hydroxypropylcellulose) (HPC) 88 % of control

Cc1cccc(Nc2ncnc3c2c(=O)n(C)c(=O)n3C)c1
inactive: dose: 15.0 mg/kg/injection, schedule: Q01DX005 (ip), vehicle: saline with Tween-80 91 % of control | dose: 30.0 mg/kg/injection, schedule: Q01DX005 (ip), vehicle: saline with Tween-80 94 % of control | [1] 86 % of control

Cc1c(C)[n+](=O)c2ccccc2n1[O-]
inactive: [2] 103 % of control | [3] 108 % of control | [4] 100 % of control

C=C1CC2(CCC3C4CC=C5CC(O)CCC5(C)C4CCC32C)OC1=O (stereo not drawn)
inactive: dose: 100.0 mg/kg/injection, schedule: Q04DX003 (ip), vehicle: Klucel (hydroxypropylcellulose) (HPC) 104 % of control | dose: 200.0 mg/kg/injection, schedule: Q04DX003 (ip), vehicle: Klucel (hydroxypropylcellulose) (HPC) 105 % of control | dose: 400.0 mg/kg/injection, schedule: Q04DX003 (ip), vehicle: Klucel (hydroxypropylcellulose) (HPC) 97 % of control

CCOC(=Nc1ccc([N+](=O)[O-])cc1)SC(c1ccccc1)(c1ccccc1)c1ccccc1
inactive: [5] 103 % of control | [6] 91 % of control | [7] 88 % of control

CN(Cc1ccco1)NC(=O)C(=O)NCc1ccco1
inactive: [5] 97 % of control | [7] 88 % of control

CCCCCCCCCCCCCC(=O)Oc1ccc[nH]c1=O
inactive: [5] 91 % of control | [6] 90 % of control | [7] 90 % of control | dose: 400.0 mg/kg/injection, schedule: Q01DX005 (ip), vehicle: saline with Tween-80 98 % of control

O=C(CCCC(=O)Nc1cccc([N+](=O)[O-])c1)CC(=O)c1ccc([N+](=O)[O-])cc1
inactive: [1] 100 % of control | [8] 102 % of control | [9] 103 % of control

CC1OC(=O)C2=CCC(O)C(O)C2C1NC(=O)OCc1ccccc1 (stereo not drawn)
inactive: dose: 100.0 mg/kg/injection, schedule: Q01DX001 (ip), vehicle: saline with Tween-80 108 % of control | dose: 200.0 mg/kg/injection, schedule: Q01DX001 (ip), vehicle: saline with Tween-80 108 % of control | dose: 400.0 mg/kg/injection, schedule: Q01DX001 (ip), vehicle: saline with Tween-80 101 % of control

O=C1CC2(C(=O)N1CN1CCOCC1)c1ccccc1-c1ccccc12
inactive: dose: 50.0 mg/kg/injection, schedule: Q04DX002 (ip), vehicle: Klucel (hydroxypropylcellulose) (HPC) 109 % of control | dose: 100.0 mg/kg/injection, schedule: Q04DX002 (ip), vehicle: Klucel (hydroxypropylcellulose) (HPC) 99 % of control and 108 % of control | dose: 200.0 mg/kg/injection, schedule: Q04DX002 (ip), vehicle: Klucel (hydroxypropylcellulose) (HPC) 111 % of control

Cc1cc(=O)oc2cc(OC(=O)N(C)C)c(Cl)cc12
inactive: [10] 100 % of control | [11] 101 % of control | [12] 101 % of control

C=CCNc1nnc(-c2ccccc2)s1
inactive: [10] 103 % of control | [11] 100 % of control | [12] 100 % of control

O=[N+]([O-])c1ccc([Se]CCO)c([N+](=O)[O-])c1
inactive: [13] 101 % of control | [14] 99 % of control

O=C1CN(Cc2ccccc2)CC(=O)N2Cc3ccccc3CN12
inactive: dose: 12.5 mg/kg/injection, schedule: Q01DX005 (ip), vehicle: saline with Tween-80 98 % of control | dose: 25.0 mg/kg/injection, schedule: Q01DX005 (ip), vehicle: saline with Tween-80 105 % of control | [5] 102 % of control

NC(CCC(=O)NC(CS)C(=O)NCC(=O)O)C(=O)O (stereo not drawn)
inactive: dose: 25.0 mg/kg/injection, schedule: Q01DX005 (ip), vehicle: saline 102 % of control | [2] 104 % of control and 108 % of control | [3] 98 % of control and 94 % of control | [4] 102 % of control | dose: 400.0 mg/kg/injection, schedule: Q01DX005 (ip), vehicle: saline 93 % of control

CCOC(=O)/C=C1/SC(N2CCCCC2)C(=O)N1C (stereo not drawn)
inactive: [15] 100 % of control | dose: 100.0 mg/kg/injection, schedule: Q01DX009 (ip), vehicle: saline 104 % of control | dose: 200.0 mg/kg/injection, schedule: Q01DX009 (ip), vehicle: saline 100 % of control

O=S(=O)(O)N(O)c1ccccc1
inactive: dose: 25.0 mg/kg/injection, schedule: Q01DX001 (ip), vehicle: saline 103 % of control and 97 % of control | dose: 50.0 mg/kg/injection, schedule: Q01DX001 (ip), vehicle: saline 113 % of control and 95 % of control | dose: 100.0 mg/kg/injection, schedule: Q01DX001 (ip), vehicle: saline 106 % of control and 124 % of control | dose: 200.0 mg/kg/injection, schedule: Q01DX001 (ip), vehicle: saline 94 % of control

COc1ccc(S(=O)(=O)NC(=O)c2ccccc2)cc1
inactive: dose: 50.0 mg/kg/injection, schedule: Q04DX003 (ip), vehicle: saline 103 % of control | dose: 100.0 mg/kg/injection, schedule: Q04DX003 (ip), vehicle: saline 106 % of control and 97 % of control | dose: 200.0 mg/kg/injection, schedule: Q04DX003 (ip), vehicle: saline 98 % of control and 104 % of control | dose: 400.0 mg/kg/injection, schedule: Q04DX003 (ip), vehicle: saline 101 % of control

CSCCC(NC(=O)C(Cc1ccccc1)NC(=O)OCc1ccccc1)C(=O)O (stereo not drawn) (Cbz-Phe-Met-OH; configuration not given here)
inactive: [5] 104 % of control | [6] 105 % of control | [7] 97 % of control

CC1=CC2C(O)(CC3(CO)OC3C3C4C(C)(C)C4(OC(=O)c4ccccc4)C(OC(=O)c4ccccc4)C(C)C32O)C1=O (stereo not drawn)
inactive: dose: 50.0 micrograms/kg/injection, schedule: Q01DX005 (ip), vehicle: saline + alcohol 94 % of control | dose: 100.0 micrograms/kg/injection, schedule: Q01DX005 (ip), vehicle: saline + alcohol 97 % of control | dose: 200.0 micrograms/kg/injection, schedule: Q01DX005 (ip), vehicle: saline + alcohol 99 % of control | dose: 400.0 micrograms/kg/injection, schedule: Q01DX005 (ip), vehicle: saline + alcohol 94 % of control | dose: 800.0 micrograms/kg/injection, schedule: Q01DX005 (ip), vehicle: saline + alcohol 105 % of control

Cc1c2cnccc2c(C)c2c1c1ccccc1n2CCCCCCCCCCn1c2ccccc2c2c(C)c3cnccc3c(C)c21
inactive: [16] 98 % of control | [17] 92 % of control | dose: 100.0 mg/kg/injection, schedule: Q04DX002 (ip), vehicle: saline with Tween-80 89 % of control

CCCC(CCC)=NNC(=S)SC
inactive: dose: 12.5 mg/kg/injection, schedule: Q01DX009 (ip), vehicle: saline with Tween-80 95 % of control | dose: 25.0 mg/kg/injection, schedule: Q01DX009 (ip), vehicle: saline with Tween-80 95 % of control | [10] 106 % of control and 95 % of control

Cc1ccc2nc(CC(=O)c3cccnc3)c(CC(=O)c3cccnc3)nc2c1
inactive: [1] 93 % of control | [8] 100 % of control | [9] 100 % of control

COC(=O)C(N)Cc1ccc(OCc2ccccc2)cc1 (stereo not drawn)
inactive: [18] 102 % of control | [19] 102 % of control | [16] 97 % of control | [15] 100 % of control and 101 % of control | [17] 108 % of control

ClCc1nnc(-c2ccccc2)o1
inactive: [13] 100 % of control | [14] 95 % of control

C[N+]1(N)CCOCC1
inactive: [18] 97 % of control | [19] 100 % of control | [15] 92 % of control

CCCC(NC(=O)OCc1ccccc1)C(=O)NC(C(=O)O)C(C)CC (stereo not drawn) (Cbz-[Nva]-Ile-OH; configuration not given here)
inactive: dose: 50.0 mg/kg/injection, schedule: Q01DX005 (ip), vehicle: Klucel (hydroxypropylcellulose) (HPC) 100 % of control | dose: 100.0 mg/kg/injection, schedule: Q01DX005 (ip), vehicle: Klucel (hydroxypropylcellulose) (HPC) 100 % of control | dose: 200.0 mg/kg/injection, schedule: Q01DX005 (ip), vehicle: Klucel (hydroxypropylcellulose) (HPC) 101 % of control

From PubChem BioAssay AID330 (DTP/NCI, 2004)
